Measured values published in patent US12543738B2 (Bayer Aktiengesellschaft, priority 2020, dated 2026).
Marks after values point to notes of the source that are not given here.

What was measured:
[1] = Measurement of LogP values by HPLC on reversed phase columns (EEC directive 79/831 Annex V.A8); format: physicochemical; conditions: for chromatographic logP: method [a]: LC-UV, acidic range, 0.1% formic acid in water and acetonitrile, compounds of formula (I-1), Table 1
Experimental: Calibration was done with straight-chain alkan2-ones (with 3 to 16 carbon atoms) with known LogP values (measurement of LogP values using retention times with linear interpolation between successive alkanones). Lambda-max-values were determined using UV-spectra from 200 nm to 400 nm and the peak values of the chromatographic signals

[2] = test system: Botrytis cinerea; assay: In vivo preventive test on Botrytis cinerea (grey mould); conditions: 500 ppm of active ingredient, preventive spray on gherkin or cabbage, evaluated 4 to 5 days after inoculation, read-out: efficacy
Experimental: (§1) The active ingredients were made soluble and homogenized in a mixture of Dimethyl sulfoxide/Acetone//Tween® 80 and then diluted in water to the desired concentration. The young plants of gherkin or cabbage were treated by spraying the active ingredient prepared as described above. Control plants were treated only with an aqueous solution of Acetone/Dimethyl sulfoxide/Tween® 80. After 24 hours, the plants were contaminated by spraying the leaves with an aqueous suspension of Botrytis cinerea spores.

[3] = test system: Pyrenophora teres; assay: In vivo preventive test on Pyrenophora teres (net blotch on barley); conditions: 240 h, 500 ppm of active ingredient, preventive spray on barley, evaluated 10 days after inoculation, read-out: efficacy
Experimental: as §1, with “barley” for “gherkin or cabbage”, “Pyrenophora teres” for “Botrytis cinerea”

[4] = test system: Sphaerotheca fuliginea; assay: In vivo preventive test on Sphaerotheca fuliginea (powdery mildew on cucurbits); conditions: Podosphaera fuliginea, 192 h; 500 ppm of active ingredient; preventive spray on gherkin; evaluated 8 days after inoculation; read-out: efficacy
Experimental: as §1, with “gherkin” for “gherkin or cabbage”, “Sphaerotheca fuliginea” for “Botrytis cinerea”

[5] = test system: Colletotrichum lindemuthianum; assay: In vivo preventive test on Colletotrichum lindemuthianum (leaf spot on bean); conditions: 168 h, 500 ppm of active ingredient, preventive spray on bean, evaluated 7 days after inoculation, read-out: efficacy
Experimental: as §1, with “bean” for “gherkin or cabbage”, “Colletotrichum lindemuthianum” for “Botrytis cinerea”

[6] = test system: Alternaria alternata; assay: Alternaria alternata in vitro cell test; format: cell-based; conditions: 120 h, 20 ppm of active ingredient, liquid culture, 5 days incubation, read-out: efficacy (inhibition of fungal growth)
Experimental: (§2) • Solvent: DMSO • Culture medium: 14.6 g anhydrous D-glucose (VWR), 7.1 g Mycological Peptone (Oxoid), 1.4 g granulated Yeast Extract (Merck), QSP 1 liter • Inoculum: spores suspension Fungicides were solubilized in DMSO and the solution used to prepare the required range of concentrations. […] A spore suspension of A. alternata was prepared and diluted to the desired spore density. Fungicides were evaluated for their ability to inhibit spore germination and mycelium growth in liquid culture assay. The compounds were added in the desired concentration to the culture medium with spores. After 5 days incubation, fungi-toxicity of compounds was determined by spectrometric measurement of mycelium growth. Inhibition of fungal growth was determined by comparing the absorbance values in wells containing the fungicides with the absorbance in control wells without fungicides.

[7] = test system: Pyricularia Oryzae; assay: microbe, parasite or virus in culture; format: cell-based; conditions: 120 h, read-out: efficacy (inhibition of fungal growth)
[8] = test system: Colletotrichum lindemuthianum; assay: Colletotrichum lindemuthianum in vitro cell test; format: cell-based; conditions: 144 h, 20 ppm of active ingredient, liquid culture, 6 days incubation, read-out: efficacy (inhibition of fungal growth)
Experimental: as §2, with “of C. lindemuthianum” for “of A. alternata”, “inhibit spores” for “inhibit spore”, “After 6” for “After 5”

[9] = test system: Septoria tritici; assay: Septoria tritici in vitro cell test; format: cell-based; conditions: Zymoseptoria tritici, 168 h; 20 ppm of active ingredient; liquid culture, 7 days incubation; read-out: efficacy (inhibition of fungal growth)
Experimental: • Solvent: DMSO • Culture medium: 1 g KH2PO4 (VWR), 1 g K2HPO4 (VWR), 0.5 g Urea (VWR), 3 g KNO3 (Prolabo), 10 g saccharose (VWR), 0.5 g MgSO4, 7H2O (Sigma), 0.07 g CaCl2, 2H2O (Prolabo), 0.2 mg MnSO4, H2O (Sigma), 0.6 mg CuSO4, 5H2O (Sigma), 7.9 mg ZnSO4, 7H2O (Sigma), 0.1 mg H3BO3 (Merck), 0.14 mg NaMoO4, 2H2O (Sigma), 2 mg thiamine (Sigma), 0.1 mg biotine (VWR), 4 mg FeSO4, 7H2O (Sigma), QSP 1 liter • Inoculum: spore suspension Fungicides were solubilized in DMSO and the solution used to prepare the required range of concentrations. […] A spore suspension of S. tritici was prepared and diluted to the desired spore density. Fungicides were evaluated for their ability to inhibit spore germination and mycelium growth in liquid culture assay. The compounds were added in the desired concentration to the culture medium with spores. […] Inhibition of fungal growth was determined by comparing the absorbance values in wells containing the fungicides with the absorbance in control wells without fungicides.

[10] = test system: Alternaria brassicae; assay: In vivo preventive test on Alternaria brassicae (leaf spot on radish or cabbage); conditions: 144 h, 500 ppm of active ingredient, preventive spray on radish or cabbage, evaluated 6 days after inoculation, read-out: efficacy
Experimental: as §1, with “radish” for “gherkin”, “Alternaria brassicae” for “Botrytis cinerea”

Structure (SMILES)	chromatographic logP [1]	pest or weed control at 500 ppm [2] [%]	pest or weed control at 500 ppm [3] [%]	pest or weed control at 500 ppm [4] [%]	pest or weed control at 500 ppm [5] [%]	inhibition at 20 ppm [6] [%]	inhibition at 20 ppm [7] [%]	inhibition at 20 ppm [8] [%]	inhibition at 20 ppm [9] [%]	pest or weed control at 500 ppm [10] [%]	LogP [1]
Cc1ccc(CC2CON=C(c3cc(C(C)O)nnc3Oc3cccc(C4CC4)c3)N2)c(C)c1 (stereo not drawn) [Compound I-016, 1-{6-(3-cyclopropylphenoxy)-5-[5-(2,4-dimethylbenzyl)-5,6-dihydro-4H-1,2,4-oxadiazin-3-yl]pyridazin-3-yl}ethanol]	3.55	90 to 100	80 to 89	90 to 100	90 to 100	90 to 100	90 to 100	90 to 100	90 to 100	90 to 100	–
C=C(OCC)c1cc(C2=NOCC(Cc3ccc(Cl)cc3Cl)N2)c(Oc2cccc(C3CC3)c2F)nn1 (racemic) [Compound I-020, (5RS)-3-[3-(3-cyclopropyl-2-fluorophenoxy)-6-(1-ethoxyvinyl)pyridazin-4-yl]-5-(2,4-dichlorobenzyl)-5,6-dihydro-4H-1,2,4-oxadiazine]	5.41	90 to 100	90 to 100	90 to 100	90 to 100	90 to 100	90 to 100	90 to 100	90 to 100	90 to 100	–
Cc1cc(C2=NOCC(Cc3ccc(Cl)cc3Cl)N2)c(Oc2cccc(C3(Cl)CC3)c2)nn1 (racemic) [Compound I-022, (5RS)-3-{3-[3-(1-chlorocyclopropyl)phenoxy]-6-methylpyridazin-4-yl}-5-(2,4-dichlorobenzyl)-5,6-dihydro-4H-1,2,4-oxadiazine]	4.51	90 to 100	90 to 100	90 to 100	90 to 100	90 to 100	70 to 79	–	–	90 to 100	–
Cc1ccc(C)c(CC2CON=C(c3cc(C)nnc3Oc3cccc(C)c3F)N2)c1 (racemic) [Compound I-013, (5RS)-5-(2,5-dimethylbenzyl)-3-[3-(2-fluoro-3-methylphenoxy)-6-methylpyridazin-4-yl]-5,6-dihydro-4H-1,2,4-oxadiazine]	3.69	90 to 100	80 to 89	90 to 100	90 to 100	90 to 100	80 to 89	90 to 100	90 to 100	90 to 100	–
Cc1ccc(C)c(CC(CCl)NC(=NO)c2cc(C)nnc2Oc2cccc(C)c2F)c1 (stereo not drawn) [Compound 15-06]	–	–	–	–	–	–	–	–	–	–	3.74^[a]
Cc1ccc(CC(CCl)NC(=O)c2cc(C)nnc2Oc2cccc(C3(F)CC3)c2)c(C)c1 (stereo not drawn) [Compound 14-10]	–	–	–	–	–	–	–	–	–	–	4.58^[a]
Clc1ccc(CC2CON=C(c3cc(Cl)nnc3Oc3cccc(C4(Cl)CC4)c3)N2)c(Cl)c1 (racemic) [Compound I-024, (5RS)-3-{6-chloro-3-[3-(1-chlorocyclopropyl)phenoxy]pyridazin-4-yl}-5-(2,4-dichlorobenzyl)-5,6-dihydro-4H-1,2,4-oxadiazine]	4.93	–	–	–	–	–	–	–	–	–	–
Cc1ccc(C[C@H]2CON=C(c3cc(C(Cl)Cl)nnc3Oc3cccc(C4CC4)c3F)N2)c(C)c1 [Compound I-021, (5S)-3-[3-(3-cyclopropyl-2-fluorophenoxy)-6-(dichloromethyl)pyridazin-4-yl]-5-(2,4-dimethylbenzyl)-5,6-dihydro-4H-1,2,4-oxadiazine]	5.11	–	–	–	–	–	–	–	–	–	–
Cc1cc(C)cc(CC(CCl)NC(=NO)c2cc(C)nnc2Oc2cccc(Cl)c2F)c1 (stereo not drawn) [Compound 15-04]	–	–	–	–	–	–	–	–	–	–	3.98^[a]
Cc1cc(C)cc(CC2CON=C(c3cc(C)nnc3Oc3cccc(C)c3F)N2)c1 (racemic) [Compound I-008, (5RS)-5-(3,5-dimethylbenzyl)-3-[3-(2-fluoro-3-methylphenoxy)-6-methylpyridazin-4-yl]-5,6-dihydro-4H-1,2,4-oxadiazine]	3.85	90 to 100	90 to 100	90 to 100	90 to 100	90 to 100	90 to 100	90 to 100	90 to 100	90 to 100	–
Cc1ccc(CC(N)CCl)c(C)c1.Cl (stereo not drawn) [Compound 13-04]	–	–	–	–	–	–	–	–	–	–	1.24[a]
Cc1cc(C)cc(CC(CCl)NC(=O)c2cc(C)nnc2Oc2cccc(C)c2F)c1 (stereo not drawn) [Compound 14-04]	–	–	–	–	–	–	–	–	–	–	4.47^[a]
Cc1ccc(C)c(CC(CCl)NC(=NO)c2cc(C)nnc2Oc2cccc(Cl)c2)c1 (stereo not drawn) [Compound 15-07]	–	–	–	–	–	–	–	–	–	–	3.74^[a]
Cc1ccc(CC(CCl)NC(=O)c2cc(C)nnc2Oc2cccc(C)c2F)c(Cl)c1 (stereo not drawn) [Compound 14-02]	–	–	–	–	–	–	–	–	–	–	4.43^[a]
